The text below walks through data of PubChem BioAssay AID1288 (Columbia University Molecular Screening Center, 2008).

What is called inhibition is the change of the read-out against control, counted positive when it falls.

Activity calls are given as the source filed them. No rule for the calls is given here.

This assay in a line: inhibitors of TNFa-induced E-selectin expression, confirmation, imaging, retest plus dose response, cell count (AID 1288).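 Also: 0% = stimulated vehicle wells and 100% = unstimulated vehicle wells.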 The settings on record: human endothelial cells, TNFa-induced E-selectin, imaging; at 2 µM; hits give high values.

As for `COc1cccc(CNc2ccc(F)c(Cl)c2)c1`, the inhibition is 39.9% (inactive).

For the compound `Cn1c(=O)[nH]c(=O)c2c1nc(CN1CCN(Cc3ccccc3)CC1)n2CC(N)=O`, the inhibition is 8.32% (inactive).

Turning to `Oc1ccc(-c2csc(-c3ccccc3)n2)cc1O`, the inhibition was 35.9% (inactive).

`C=CCn1c(COc2cccc(C)c2C)nnc1SCC(=O)N1CCN(c2ccccc2)CC1`: the inhibition is 5.6% (inactive).

With `CCCn1nnnc1SCC(=O)N1CCOCC1`, the inhibition was 20.5% (inactive).

Consider `Cc1cc([N+](=O)[O-])nn1CCCC(=O)Nc1sc2c(c1C(N)=O)CCC(C)C2` (configuration not stated), for which the inhibition is 1.33% (inactive).

As for `CCC(C)(C)n1nnnc1C(c1ccc(OC)c(OC)c1)N1CCN(c2ccccc2)CC1` (configuration not stated), the inhibition is 2.72% (inactive).

As for `COc1ccccc1OCCn1cc(C(=O)c2ccco2)c2ccccc21`, the inhibition was 12.3% (inactive).

With `COc1cc(/C=C2\SC(=S)N(CC(=O)Nc3ccc(O)cc3)C2=O)cc(OC)c1OC`, the inhibition was -1.6% (inactive).

For the compound `O=C(Nc1ccc(Cl)cc1)Nc1nnc(CSc2ccc(Cl)cc2)s1`, the inhibition is 6.9% (inactive).

In the case of `O=C(O)CSc1nnc(-c2ccncc2)n1CCc1ccccc1`, the inhibition was 28.9% (inactive).

Consider `Cn1c(CCNC(=O)c2ccc(Cl)c(Cl)c2)nnc1SCc1ccc(Cl)c(Cl)c1`, for which the inhibition was 6.96% (inactive).

For `COc1ccc(-c2csc3ncnc(Oc4cccc5ccc(C)nc45)c23)cc1`, the inhibition was 5.48% (inactive).

`Cc1cc2nc(-c3ccc(SCc4ccc(C#N)cc4)nc3)[nH]c2cc1C`: the inhibition is 1.98% (inactive).

Take `COc1ccc(C(=O)/C=C/Nc2ccc([N+](=O)[O-])cc2C)c(OC)c1`: the inhibition was 26.8% (inactive).

In the case of `COc1ccc(OC)c(CCNC(=O)CSc2ccsc2[N+](=O)[O-])c1`, the inhibition was 4.97% (inactive).

As to `Cc1ccn2cc(CCNS(=O)(=O)c3ccc(F)c(C(F)(F)F)c3)nc2c1`, the inhibition was 0.82% (inactive).

Regarding `FC(F)(F)c1cnc2c(-c3ccccc3)n[nH]c2c1`, the inhibition was 0.15% (inactive).

Turning to `CCCN1CCc2[nH]c(=S)[nH]c(=O)c2C1`, the inhibition is -2.07% (inactive).

As for `Cc1nnc(SCC(=O)N(C)c2ccccc2)n1Cc1ccccc1`, the inhibition is 1.26% (inactive).

With `COc1ccccc1NC(=S)N(Cc1ccco1)Cc1cc2cccc(C)c2[nH]c1=O`, the inhibition was 30.6% (inactive).

Consider `CCC(C)NC(=O)C(NS(=O)(=O)c1cccc2nsnc12)c1ccccc1` (configuration not stated), for which the inhibition is 9.11% (inactive).

`COc1ccc(CCNC(=O)CSc2nc(-c3ccco3)cc(C(F)(F)F)n2)cc1OC`: the inhibition was 18.9% (inactive).

As to `CC(CCc1ccccc1)NC(=O)/C=C/c1ccc(Cl)cc1` (configuration not stated), the inhibition is 14.9% (inactive).

As to `CCOC(=O)N1CCN(C(=O)c2ccc(Oc3ccc([N+](=O)[O-])cc3)cc2)CC1`, the inhibition is 18.9% (inactive).

Turning to `Cc1ccc(NC(=O)c2ccc(OC(=O)CCN3C(=O)c4ccccc4C3=O)cc2)cc1`, the inhibition is 42.6% (inactive).

For `Cc1ccc(SCCC(=O)Nc2ccccc2C(=O)NC(C)C)cc1`, the inhibition was 12.3% (inactive).

On to `O=C1c2cccc(OCC(=O)N3CCCc4ccccc43)c2CCN1Cc1ccc(Br)cc1`, for which the inhibition was -5.27% (inactive).

Consider `Cn1c(NCCN2CCCCC2)cc(=O)n(C)c1=O`, for which the inhibition was 22.7% (inactive).

For `O=C(CN(C(=O)CCC(=O)Nc1ccccn1)c1ccc2c(c1)OCO2)NCc1ccco1`, the inhibition was 36.3% (inactive).

For `CCCNc1ncnc2sc(C)c(C)c12`, the inhibition is 12.7% (inactive).

As for `COC(=O)C(NC(=O)c1ccccc1)c1ccccc1` (configuration not stated), the inhibition was 5.65% (inactive).

With `N/C(=N\S(=O)(=O)c1cccs1)c1ccccc1`, the inhibition is 13.7% (inactive).

As to `COc1ccc(N=C2SCC(=O)N2c2ccc(OC)cc2)cc1`, the inhibition was -8.28% (inactive).

As to `O=C(Cn1ncc2c(=O)oc3ccccc3c21)N1CCc2ccccc2C1`, the inhibition was 9.96% (inactive).

As for `COc1ccc(CNC(=O)c2ccc(NC(=O)CC3SC(N4CCCCC4)=NC3=O)cc2)cc1` (configuration not stated), the inhibition was 4.81% (inactive).

For the compound `Fc1ccc(-c2n[nH]c(=S)n2/N=C/c2c[nH]c3ccccc23)cc1`, the inhibition is 27.9% (inactive).

Take `CCOC(=O)N1CCN(C(=S)NC(=O)c2cncc(Br)c2)CC1`: the inhibition is 19.8% (inactive).

Turning to `C1=C(c2ccc(-c3ccccc3)cc2)Nc2ncnn2C1c1ccco1` (configuration not stated), the inhibition is 26.2% (inactive).

Consider `CC(C)Cn1cnc2c1c(=O)n(CC(=O)Nc1ccc3c(c1)OCO3)c(=O)n2Cc1ccccc1`, for which the inhibition was 14.6% (inactive).

Regarding `CCn1c(SCc2nc(CC(=O)Nc3ccccc3OC)no2)nnc1-c1cccs1`, the inhibition is 7.75% (inactive).

Regarding `Cn1c(SCc2ccc(C#N)cc2)nnc1-c1cccc(Cl)c1`, the inhibition is 7.7% (inactive).

Regarding `CCOc1ccc(NC(=O)/C=C/c2ccc(OC)cc2)c([N+](=O)[O-])c1`, the inhibition is 13.8% (inactive).

As to `COc1cccc(S(=O)(=O)Nc2ccc(C(=O)N3CCN(C(=O)c4ccco4)CC3)cc2)c1`, the inhibition was 31.3% (inactive).

Take `O=C(CCn1nnc2ccccc21)Nc1nnc(Cc2ccc(F)cc2)s1`: the inhibition was 5.36% (inactive).

For the compound `Cc1c(NC(=O)CN2CC(C)OC(C)C2)c(=O)n(-c2ccccc2)n1C` (configuration not stated), the inhibition was 35.8% (inactive).

In the case of `CCSc1nnc(-c2cccs2)o1`, the inhibition was 6.52% (inactive).

As for `CSc1ccc(/C=N/NC(=O)CN2CCN(Cc3ccc(C)cc3)CC2)cc1`, the inhibition is -1.62% (inactive).

For the compound `Cc1cc(-n2nc(C)cc2C)nc(NS(=O)(=O)c2ccccc2)n1`, the inhibition is 14.8% (inactive).

For `CC(C)CC(=O)n1sc(NC(=O)c2ccccc2)nc1=O`, the inhibition was -4.08% (inactive).

With `Cc1cc(NC(=O)CSc2nnc(Cc3ccccc3)n2C)no1`, the inhibition was 1.71% (inactive).

Regarding `COc1ccccc1Cc1nc(-c2ccncc2)no1`, the inhibition was 13.1% (inactive).

As to `Cc1cc(C)cc(C(=O)Oc2coc(CSc3nnc(NC(=O)C4CC4)s3)cc2=O)c1`, the inhibition was 6.25% (inactive).

Take `O=C(CCCN1CCOCC1)c1ccc2c(c1)OCCO2`: the inhibition is 2.27% (inactive).

Regarding `COc1ccc(C(CC(=O)NCc2ccccc2)Sc2n[nH]c(-c3ccccc3)n2)cc1` (configuration not stated), the inhibition is 29.1% (inactive).

Turning to `CCc1cc[n+](CC(=O)Nc2ccc(Cl)cc2Cl)cc1`, the inhibition is 5.98% (inactive).

For the compound `CCOC(=O)C1C(=O)CC(C)(O)C(C(=O)OCC)C1c1ccccc1` (configuration not stated), the inhibition was -2.22% (inactive).

With `CCOC(=O)c1cccc(NC(=O)CSc2nnc(-c3ccoc3C)n2CCOC)c1`, the inhibition is -4.74% (inactive).

For `COc1ccc(S(=O)(=O)NCc2csc(-c3cccnc3)n2)cc1`, the inhibition is 4.07% (inactive).

Consider `Cc1nc2ccc(NC(=O)c3cc(S(=O)(=O)N4CCOCC4)ccc3C)cc2s1`, for which the inhibition is 16% (inactive).

As for `COc1ccc2cc(CN(CCO)C(=O)c3ccccc3F)c(=O)[nH]c2c1`, the inhibition was 12.6% (inactive).

Consider `CCCNC(=O)C1CCN(S(=O)(=O)c2c(C)noc2/C=C\c2ccc(OC)cc2)CC1`, for which the inhibition was 6.76% (inactive).

With `C=CCNC(=S)NNC(=O)c1ccc(Br)cc1`, the inhibition was 38.3% (inactive).

As to `COc1ccc2cc(S(=O)(=O)N3CCN(C)CC3)ccc2c1`, the inhibition was 16.8% (inactive).

Turning to `Cc1nc2c(sc3nc4c(cc32)COC(C)(C)C4)c(=O)o1`, the inhibition is 6.35% (inactive).

For `COCCN1CN(S(=O)(=O)c2ccccc2)c2nc3ccccc3nc21`, the inhibition is 2.89% (inactive).

Take `COc1ccc(-c2noc(CCC(N)=O)n2)cc1OC`: the inhibition was 16.5% (inactive).

With `CCNC(=O)CN(CCc1ccccc1)S(C)(=O)=O`, the inhibition was 7.43% (inactive).

Turning to `CCCC(CCC)C(=O)NNc1cc(=O)c2c(=O)n(C)c(=O)n(C)c2[nH]1`, the inhibition is 5.15% (inactive).

As to `CCOC(=O)Cc1nnc(NC(=O)CSc2ccc(Cl)cc2)s1`, the inhibition was 2.82% (inactive).

Consider `CC(C)C(C(=O)O)N1CCS(=O)(=O)CC1` (configuration not stated), for which the inhibition was 7.68% (inactive).

`COc1cccc(-c2cc3c(=O)n(-c4ccccc4)c(=S)[nH]c3s2)c1`: the inhibition is 24.4% (inactive).

Consider `C=CCNC(=S)NNC(=O)c1ccc(OCC)cc1`, for which the inhibition is 1.76% (inactive).

For `CC1Cc2cc(/C(O)=C3/C(=O)C(=O)N(CCCn4ccnc4)C3c3ccncc3)ccc2O1` (configuration not stated), the inhibition is 5.53% (inactive).

For the compound `O=C(Cn1nnc(-c2ccc(Cl)cc2)n1)NC1CCN(Cc2ccccc2)CC1`, the inhibition is 11.8% (inactive).

Take `CCC1Sc2ccccc2N(CC(=O)NCc2ccc3c(c2)OCO3)C1=O` (configuration not stated): the inhibition was 9.94% (inactive).

For the compound `CCC(=O)NC(c1ccc([N+](=O)[O-])cc1)c1c(O)ccc2ccccc12` (configuration not stated), the inhibition is 0.15% (inactive).

For the compound `c1nc(NCCN2CCOCC2)c2sc3nc(N4CCOCC4)c4c(c3c2n1)CCC4`, the inhibition is 34.1% (inactive).

`Cc1ccc(CNC(=O)CCc2nc3ccccc3c(=O)[nH]2)cc1`: the inhibition is 15.6% (inactive).

For `CN(C)CCNC(=O)/C(=C/c1ccc(-c2ccc(Cl)cc2)o1)NC(=O)c1ccccc1`, the inhibition was 0.09% (inactive).

As to `CCCCN(C(=O)c1cc(OC)c(OC)c(OC)c1)C1=CC2CCC(C1)N2C` (configuration not stated), the inhibition is 8.59% (inactive).

With `O=C(Cc1ccc(-c2ccccc2)cc1)NCCN1CCOCC1`, the inhibition is 2.16% (inactive).

As to `COc1ccccc1CNC(=O)CSc1nnc2ccc(-c3cccnc3)nn12`, the inhibition was 2.18% (inactive).

`O=C(CSc1ncn(-c2ccccc2)n1)Nc1ccc2c(c1)OCCO2`: the inhibition was 14.5% (inactive).

`O=C1CC(c2ccccc2)SC(N(c2ccccc2)c2ccccc2)=N1` (configuration not stated): the inhibition was 26.1% (inactive).

On to `Cc1ccc(NC(=O)CSc2nc3ccccc3c3nc(CCc4c(C)n[nH]c4C)nn23)cc1F`, for which the inhibition is 47.2% (inactive).

Consider `COC(=O)c1nnn(-c2ccc(Cl)c(Cl)c2)c1C(=O)OC`, for which the inhibition was 11.3% (inactive).
